In patent US5604245A, “Use of 4-amino-1-(2-pyridyl)piperidines for the preparation of a medicament for the treatment of conditions deriving from disorders of the serotoninergic systems mediated by 5-HT3 receptors” (priority 1991, dated 1997):
Like-named read-outs stand apart in the source and are kept apart here.

Experiments:
[1] = tested on: 5-HT3 receptors (mice striatum); test: turning test in mice; assay type: in vivo; conditions: for turning behaviour after injection into the mice striatum: intrastriatal injection, inhibited by 5-HT3 receptor antagonists
From the text: CM 57227 was also studied in the "turning" test carried out as described by P. Worms et al. in Life Sciences, 1986, 39, 2199-2208.

5-HT3 receptors [2] = target: T1, 5-HT3 receptors (Rattus norvegicus, UniProt P35563); test: biochemical; assay type: binding; set-up: the cortical tissue from 4 animals was homogenized in 20 volumes of HEPES; from tissue; host or cells: cerebral cortical membranes of male rats (about 200 g)
T1 sequence (P35563 24-483): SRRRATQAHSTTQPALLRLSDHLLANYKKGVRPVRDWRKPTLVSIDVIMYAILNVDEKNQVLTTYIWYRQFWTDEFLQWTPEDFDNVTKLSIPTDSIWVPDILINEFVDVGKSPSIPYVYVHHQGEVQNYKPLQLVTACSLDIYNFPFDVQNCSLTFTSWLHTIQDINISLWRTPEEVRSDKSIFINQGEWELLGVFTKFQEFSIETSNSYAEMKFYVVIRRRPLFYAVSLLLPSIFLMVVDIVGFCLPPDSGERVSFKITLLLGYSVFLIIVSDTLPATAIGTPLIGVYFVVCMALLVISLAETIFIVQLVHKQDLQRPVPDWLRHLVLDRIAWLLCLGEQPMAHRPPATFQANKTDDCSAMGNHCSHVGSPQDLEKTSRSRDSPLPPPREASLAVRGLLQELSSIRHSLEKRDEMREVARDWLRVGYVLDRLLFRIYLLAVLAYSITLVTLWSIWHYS
Method: The potency of the compounds of formula (I') in displacing [^3 H]
For the preparation of cerebral membranes, male rats weighing about 200 g and sacrificed by decapitation were employed. […] In summary, the cortical tissue from 4 animals was homogenized in 20 volumes of HEPES and kept at 4° C. until used in the binding assays.

5-HT3 receptors [3] = target: T1, 5-HT3 receptors; test: Bezold-Jarish test in the anaesthetised rat (reduction of heart rate); assay type: in vivo; set-up: evokes in the anaesthetised rat, a short-lived reduction of heart rate (Bezold-Jarish effect); from tissue; host or cells: whole animal: urethane-anaesthetised Sprague-Dawley rat; conditions: for ED50: rat, read-out: ID50 i.v. (dose which inhibits by 50% the heart rate); for inhibition of the Bezold-Jarish effect evoked by compounds of formula (I'): anaesthetised rat
Method: Selective 5-HT3 agonist activity of the compounds of formula (I') was confirmed in vivo in the Bezold-Jarish test. In this test, intravenous administration of the compounds of formula (I') evokes in the anaesthetised rat, a short-lived reduction of heart rate (Bezold-Jarish effect).
More particularly, the Bezold-Jarish effect evoked by the compounds of formula (I') was evaluated using Sprague-Dawley rats weighing from 200 to 300 g, anaesthetised with urethane 1.25 g/kg i.p. The blood pressure was recorded from the carotid artery and heart rate was evaluated, as pulse frequency, by means of a cardiotachometer. A catheter was inserted into the jugular vein for the administration of the substances.

adrenergic sites α1 = test: displacement of labelled specific ligand from adrenergic sites α1; assay type: binding; conditions: no affinity
From the text: (§1) This affinity for 5-HT3 receptors is also selective.

adrenergic sites α2 = test: displacement of labelled specific ligand from adrenergic sites α2; assay type: binding; conditions: no affinity
From the text: as §1

5-HT1A receptors = target: T2, 5-HT1A receptors (Homo sapiens, UniProt P08908); test: displacement of labelled specific ligand from 5-HT1A receptors; assay type: binding; conditions: no affinity
T2 sequence (P08908 1-422): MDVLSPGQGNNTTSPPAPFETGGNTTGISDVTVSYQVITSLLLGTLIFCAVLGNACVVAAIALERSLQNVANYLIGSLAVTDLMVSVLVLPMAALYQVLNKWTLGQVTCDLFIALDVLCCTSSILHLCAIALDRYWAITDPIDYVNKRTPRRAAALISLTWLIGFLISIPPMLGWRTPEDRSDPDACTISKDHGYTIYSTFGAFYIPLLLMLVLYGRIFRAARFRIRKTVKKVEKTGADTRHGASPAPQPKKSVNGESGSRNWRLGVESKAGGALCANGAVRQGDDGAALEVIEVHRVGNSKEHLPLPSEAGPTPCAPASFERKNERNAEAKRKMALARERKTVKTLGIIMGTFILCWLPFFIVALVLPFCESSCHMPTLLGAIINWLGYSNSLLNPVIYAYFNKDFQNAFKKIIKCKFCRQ
From the text: as §1

adrenergic sites β1 = adrenergic sites β1 (Homo sapiens, UniProt P08588); test: displacement of labelled specific ligand from adrenergic sites β1; assay type: binding; conditions: no affinity
From the text: as §1

dopaminergic sites D2 = dopaminergic sites D2 (Homo sapiens, UniProt P14416); test: displacement of labelled specific ligand from dopaminergic sites D2; assay type: binding; conditions: no affinity
From the text: as §1

central 5-HT3 receptors = target: T3, central 5-HT3 receptors (Mus musculus, UniProt P23979); test: ex vivo inhibition of [3H] BRL 43694 specific binding to cortical cerebral membranes in mice
T3 construct: from tissue; host or cells: cortical cerebral membranes of mice dosed intraperitoneally

serotonin uptake sites = serotonin uptake sites (Homo sapiens, UniProt P31645); test: [3H] paroxetine displacement test; assay type: binding
From the text: as §1

dopaminergic sites D1 = dopaminergic sites D1 (Homo sapiens, UniProt P21728); test: displacement of labelled specific ligand from dopaminergic sites D1; assay type: binding; conditions: no affinity
From the text: as §1

5-HT1B receptors = 5-HT1B receptors (Rattus norvegicus, UniProt P28564); test: displacement of labelled specific ligand from 5-HT1B receptors; assay type: binding; conditions: no affinity
From the text: as §1

5-HT3 receptors [4] = test: fecal excretion in rats (intestinal prokinetic activity); assay type: in vivo
Method: Said activity was investigated by means of a test aimed at evaluating fecal excretion in rats. […] The compounds of formula (I') to be tested were administered subcutaneously. The treatment schedule provided for 8 animals in each group. At the time of drug treatment, the rectal lumen was manually emptied from any residual feces and the animals were then placed again into their cages. 90 Minutes after the treatment the fecal pellets were collected, their number was determined and their wet weight measured. They were then put in the oven and dried for 10 hours at 40° C. for the determination of the dry weight. The parameter used to evaluate the activity of the test compounds was the dry weight (in grams) of the feces excreted during the 90 minutes following the subcutaneous administration of the test compound.

T3 sequence (P23979 24-489): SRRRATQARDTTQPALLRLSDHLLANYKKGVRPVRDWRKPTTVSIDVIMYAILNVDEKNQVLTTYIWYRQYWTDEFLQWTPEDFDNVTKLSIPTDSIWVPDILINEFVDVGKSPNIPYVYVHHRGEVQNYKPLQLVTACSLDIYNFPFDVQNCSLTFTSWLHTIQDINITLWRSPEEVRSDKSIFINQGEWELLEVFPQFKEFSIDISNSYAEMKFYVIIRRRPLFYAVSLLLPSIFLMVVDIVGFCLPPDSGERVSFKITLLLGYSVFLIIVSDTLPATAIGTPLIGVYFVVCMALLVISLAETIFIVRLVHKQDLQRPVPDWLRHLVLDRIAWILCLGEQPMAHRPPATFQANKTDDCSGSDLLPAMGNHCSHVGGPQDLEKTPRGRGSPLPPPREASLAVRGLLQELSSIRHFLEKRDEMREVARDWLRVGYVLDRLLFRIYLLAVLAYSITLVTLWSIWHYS
Sequence of dopaminergic sites D1 (P21728 whole entry): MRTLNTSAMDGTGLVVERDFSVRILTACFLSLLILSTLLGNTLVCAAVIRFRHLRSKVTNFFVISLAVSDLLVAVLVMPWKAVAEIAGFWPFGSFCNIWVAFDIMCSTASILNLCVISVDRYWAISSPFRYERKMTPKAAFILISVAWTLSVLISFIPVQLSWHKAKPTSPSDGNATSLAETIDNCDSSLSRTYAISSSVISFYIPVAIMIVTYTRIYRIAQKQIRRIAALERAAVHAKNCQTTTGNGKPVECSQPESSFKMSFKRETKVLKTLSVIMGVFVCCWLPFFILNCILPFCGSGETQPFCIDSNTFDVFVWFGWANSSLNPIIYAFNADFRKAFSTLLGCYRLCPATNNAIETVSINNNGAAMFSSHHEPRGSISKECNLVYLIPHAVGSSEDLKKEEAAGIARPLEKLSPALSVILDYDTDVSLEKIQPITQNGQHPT
Sequence of serotonin uptake sites (P31645 whole entry): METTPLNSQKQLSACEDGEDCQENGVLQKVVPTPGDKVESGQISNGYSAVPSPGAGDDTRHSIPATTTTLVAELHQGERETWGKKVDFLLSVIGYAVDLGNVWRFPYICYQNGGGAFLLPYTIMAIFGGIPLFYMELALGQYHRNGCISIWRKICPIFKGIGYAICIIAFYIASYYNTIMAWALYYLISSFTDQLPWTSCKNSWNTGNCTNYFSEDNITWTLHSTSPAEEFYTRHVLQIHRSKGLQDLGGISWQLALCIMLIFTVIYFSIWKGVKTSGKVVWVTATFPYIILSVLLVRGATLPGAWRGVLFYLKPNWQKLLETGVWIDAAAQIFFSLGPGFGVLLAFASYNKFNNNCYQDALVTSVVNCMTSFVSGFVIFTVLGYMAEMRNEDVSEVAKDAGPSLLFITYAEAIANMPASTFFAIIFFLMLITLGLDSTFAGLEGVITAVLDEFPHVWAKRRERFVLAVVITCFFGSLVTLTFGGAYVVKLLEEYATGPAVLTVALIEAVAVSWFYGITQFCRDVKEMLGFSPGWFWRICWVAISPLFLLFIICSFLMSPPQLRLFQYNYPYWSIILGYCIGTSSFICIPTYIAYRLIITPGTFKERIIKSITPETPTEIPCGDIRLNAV
Sequence of dopaminergic sites D2 (P14416 whole entry): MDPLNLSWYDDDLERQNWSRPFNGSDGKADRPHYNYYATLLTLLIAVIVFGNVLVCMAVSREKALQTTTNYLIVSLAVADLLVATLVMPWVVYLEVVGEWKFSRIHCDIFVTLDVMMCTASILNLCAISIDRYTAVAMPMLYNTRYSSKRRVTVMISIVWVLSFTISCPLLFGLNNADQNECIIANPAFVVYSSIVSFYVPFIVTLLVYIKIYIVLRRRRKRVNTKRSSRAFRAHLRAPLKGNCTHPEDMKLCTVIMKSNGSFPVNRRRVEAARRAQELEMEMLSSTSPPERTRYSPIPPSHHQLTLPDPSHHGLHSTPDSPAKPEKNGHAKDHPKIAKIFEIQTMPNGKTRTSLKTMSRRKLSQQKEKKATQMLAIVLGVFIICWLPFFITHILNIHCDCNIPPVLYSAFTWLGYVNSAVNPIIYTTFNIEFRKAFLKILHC
Sequence of adrenergic sites β1 (P08588 whole entry): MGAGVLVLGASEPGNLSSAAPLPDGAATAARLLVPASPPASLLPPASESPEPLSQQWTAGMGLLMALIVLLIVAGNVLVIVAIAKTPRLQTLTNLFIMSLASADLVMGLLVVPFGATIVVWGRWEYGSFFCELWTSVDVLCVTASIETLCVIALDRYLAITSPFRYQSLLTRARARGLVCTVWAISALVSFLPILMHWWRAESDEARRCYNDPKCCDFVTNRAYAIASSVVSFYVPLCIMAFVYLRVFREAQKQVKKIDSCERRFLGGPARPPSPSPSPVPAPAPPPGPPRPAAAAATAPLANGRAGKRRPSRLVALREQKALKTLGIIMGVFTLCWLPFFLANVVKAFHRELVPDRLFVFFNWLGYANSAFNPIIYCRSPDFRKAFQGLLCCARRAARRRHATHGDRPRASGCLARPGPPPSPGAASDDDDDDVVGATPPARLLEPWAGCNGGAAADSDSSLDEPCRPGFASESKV
Sequence of 5-HT1B receptors (P28564 whole entry): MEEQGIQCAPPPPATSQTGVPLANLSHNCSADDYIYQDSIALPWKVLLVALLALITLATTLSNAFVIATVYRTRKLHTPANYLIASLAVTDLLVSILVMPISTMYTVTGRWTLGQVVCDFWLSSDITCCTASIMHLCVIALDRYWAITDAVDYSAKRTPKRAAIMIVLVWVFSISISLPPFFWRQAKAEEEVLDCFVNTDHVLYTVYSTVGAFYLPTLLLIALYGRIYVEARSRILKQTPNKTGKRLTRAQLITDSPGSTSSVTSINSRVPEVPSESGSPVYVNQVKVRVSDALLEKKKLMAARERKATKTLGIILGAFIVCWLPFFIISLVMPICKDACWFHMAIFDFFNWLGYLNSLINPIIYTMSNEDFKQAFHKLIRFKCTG

`Cc1[nH]c2ccc(O)cc2c1CCN` [2-methylserotonin, reference compound] was tested, and the “turning behaviour after injection into the mice striatum” value [1] was “evokes a turning behaviour”, the Ki (5-HT3 receptors [2]) was 1.11 µM and the ED50 (5-HT3 receptors [3]; anaesthetised Sprague-Dawley rats, intravenous) was 0.005 mg/kg.
For `Cl.NC1CCN(c2cccc(Cl)n2)CC1` [CM 57227, 4-amino-1-(6-chloro-2-pyridyl)piperidine hydrochloride], the ED50 ([1]; Mus musculus, ip, mice, test compound i.p., ondansetron 1 mg/kg i.p., intrastriatal 2-methylserotonin, read-out: ED50, blockade of ondansetron antagonism of 2-methylserotonin-induced turning behaviour) was 0.25 mg/kg, the “turning behaviour after injection into the mice striatum” value [1] was “evokes a turning behaviour” and the Ki (adrenergic sites α1) was over 10 µM. For the same compound, the Ki (adrenergic sites α2) was over 10 µM, the Ki (5-HT1A receptors) was over 10 µM and the Ki (adrenergic sites β1) was over 10 µM. The Ki (dopaminergic sites D2) was over 10 µM, the “ID50 p.o., extrapolated to zero dilution” value (central 5-HT3 receptors; mice, oral administration, compared with ID50 i.p. of 1 mg/kg) was “of the same magnitude order” and the ED50 (central 5-HT3 receptors; mouse, ip, 0.5 h, read-out: ID50 i.p., extrapolated to zero dilution (dose inhibiting by 50% [3H] BRL 43694 binding), mice, 30 minutes after i.p. administration) was 1 mg/kg. For the same compound, the “ID50 for [3H] BRL 43694 binding compared with ID50 for [3H] paroxetine (serotonin uptake sites)” value (central 5-HT3 receptors; same experimental conditions) was “markedly lower”, the Ki (serotonin uptake sites) was over 10 µM and the Ki (5-HT3 receptors [2]; 0.5 nM [3H] BRL 43694, 30 minutes at 25° C., rat cortical membranes, read-out: Ki, displacement of [3H] BRL 43694) was 0.193 µM. The Ki (dopaminergic sites D1) was over 10 µM, the ED50 (5-HT3 receptors [3]; iv) was 0.00829 mg/kg and the Ki (5-HT1B receptors) was over 10 µM. For the same compound, the “dry weight of feces excreted during 90 minutes” value (5-HT3 receptors [4]; 2.5 mg/kg s.c.) was “about 1.3 g”.
For `CN1C2CCC1CC(OC(=O)c1c[nH]c3ccccc13)C2` (stereo not shown) [ICS 205-930], the “inhibition of the Bezold-Jarish effect evoked by compounds of formula (I')” value (from here on “inhibition”) (5-HT3 receptors [3]) was “inhibited” and the “antagonism of the fecal excretion stimulating activity of compounds of formula (I')” value (5-HT3 receptors [4]) was “antagonised”.
With `CC[C@@H](CO)NC(=O)[C@@H]1C=C2c3cccc4c3c(cn4C)C[C@H]2N(C)C1` [methysergide] the “inhibition” value (5-HT3 receptors [3]) was “not inhibited”.
`NCCc1c[nH]c2ccc(O)cc12` [serotonin] was tested, and the ED50 (5-HT3 receptors [3]; iv) was 0.0136 mg/kg.
In the case of `COc1cc(N)c(Cl)cc1C(=O)NC1CN2CCC1CC2` (stereo not shown) [zacopride], the “inhibition” value (5-HT3 receptors [3]) is reported as “inhibited” and the “antagonism of the fecal excretion stimulating activity of compounds of formula (I')” value (5-HT3 receptors [4]) is reported as “antagonised”.
